Among the data in patent US8940724B2, “Quinoline derivitives and their uses” (Amgen Inc., priority 2009, dated 2015) are Ki values, retold here.

T1 sequence (O00329 whole entry): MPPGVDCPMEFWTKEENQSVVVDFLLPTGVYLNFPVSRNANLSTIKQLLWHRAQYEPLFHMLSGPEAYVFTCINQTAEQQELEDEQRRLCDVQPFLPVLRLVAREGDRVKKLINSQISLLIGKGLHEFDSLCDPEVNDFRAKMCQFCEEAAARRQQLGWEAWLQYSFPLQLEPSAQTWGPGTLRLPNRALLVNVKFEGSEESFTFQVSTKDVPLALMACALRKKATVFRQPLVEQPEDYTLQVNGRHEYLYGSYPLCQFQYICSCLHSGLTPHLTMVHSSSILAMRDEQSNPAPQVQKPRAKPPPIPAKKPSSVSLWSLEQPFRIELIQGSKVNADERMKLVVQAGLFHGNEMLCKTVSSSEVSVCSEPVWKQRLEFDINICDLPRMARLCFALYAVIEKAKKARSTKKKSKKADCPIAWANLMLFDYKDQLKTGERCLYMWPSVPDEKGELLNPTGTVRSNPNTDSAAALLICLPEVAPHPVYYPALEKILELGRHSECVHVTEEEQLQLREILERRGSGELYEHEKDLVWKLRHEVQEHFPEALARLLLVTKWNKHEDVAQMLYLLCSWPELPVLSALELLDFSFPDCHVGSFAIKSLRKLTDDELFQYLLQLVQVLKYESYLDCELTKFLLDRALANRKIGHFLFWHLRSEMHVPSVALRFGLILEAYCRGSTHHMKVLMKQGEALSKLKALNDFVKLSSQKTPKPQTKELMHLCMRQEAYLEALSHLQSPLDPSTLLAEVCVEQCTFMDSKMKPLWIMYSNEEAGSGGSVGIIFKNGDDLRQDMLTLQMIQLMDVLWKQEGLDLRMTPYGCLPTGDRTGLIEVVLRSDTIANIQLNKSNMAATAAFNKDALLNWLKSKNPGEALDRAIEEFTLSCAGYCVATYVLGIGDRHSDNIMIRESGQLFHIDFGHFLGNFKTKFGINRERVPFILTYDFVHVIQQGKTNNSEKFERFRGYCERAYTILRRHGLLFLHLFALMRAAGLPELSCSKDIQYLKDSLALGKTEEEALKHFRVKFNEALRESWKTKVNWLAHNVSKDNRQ
T1 sequence (P27986 whole entry partner): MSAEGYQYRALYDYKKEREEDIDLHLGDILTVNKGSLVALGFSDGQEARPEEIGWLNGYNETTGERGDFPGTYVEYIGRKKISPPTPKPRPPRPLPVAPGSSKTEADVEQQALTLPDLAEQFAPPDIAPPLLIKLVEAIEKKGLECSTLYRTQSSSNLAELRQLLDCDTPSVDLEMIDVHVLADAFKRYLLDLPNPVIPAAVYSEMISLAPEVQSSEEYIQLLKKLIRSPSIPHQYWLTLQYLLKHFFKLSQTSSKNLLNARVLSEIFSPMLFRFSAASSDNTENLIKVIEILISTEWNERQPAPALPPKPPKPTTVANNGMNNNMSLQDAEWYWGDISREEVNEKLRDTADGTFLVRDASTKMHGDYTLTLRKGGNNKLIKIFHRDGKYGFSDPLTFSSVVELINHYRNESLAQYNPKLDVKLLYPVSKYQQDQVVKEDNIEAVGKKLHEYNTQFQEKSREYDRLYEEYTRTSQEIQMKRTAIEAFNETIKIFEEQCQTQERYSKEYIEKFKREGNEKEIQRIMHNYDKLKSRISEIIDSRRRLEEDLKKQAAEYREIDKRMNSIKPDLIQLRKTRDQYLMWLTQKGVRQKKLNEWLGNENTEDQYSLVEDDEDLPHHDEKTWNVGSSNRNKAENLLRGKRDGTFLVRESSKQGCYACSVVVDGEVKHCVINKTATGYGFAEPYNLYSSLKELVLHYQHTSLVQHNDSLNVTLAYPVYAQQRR

This assay has as its target T1, PI3Kδ (Homo sapiens, UniProt O00329).
T1 construct: Full length p110 subunits of PI3k α, β and δ, N-terminally labeled with polyHis tag; polyHis (N); made in house; host or cells: Sf9 insect cells (baculovirus)
Description: PI3Kδ Alphascreen assay. The format is biochemical. In general terms: Alpha assays give light when donor and acceptor beads are brought close together.
A word on the Ki: it is a dissociation constant, usually derived from enzyme kinetics or from competition with a known ligand. Read a low Ki as higher affinity. Turning to `Cc1c(-c2ccccn2)nc2cc(F)cc(F)c2c1Nc1cc(C#N)cc(N2CCOCC2)c1` [3-((5,7-difluoro-3-methyl-2-(2-pyridinyl)-4-quinolinyl)amino)-5-(4-morpholinyl)benzonitrile], the affinity, expressed as Ki, was 7.97 nM. This lies in the single-digit nanomolar range. Under `Cc1ccnc(-c2nc3c(C#N)cccc3c(Nc3cncc(N4CCOCC4)c3)c2C)c1` [3-methyl-2-(4-methyl-2-pyridinyl)-4-((5-(4-morpholinyl)-3-pyridinyl)amino)-8-quinolinecarbonitrile] stands 57.3 nM; under `Cc1c(-c2ccccn2)nc2ncccc2c1Nc1cncc(N2CCOCC2)c1` [3-methyl-N-(5-(4-morpholinyl)-3-pyridinyl)-2-(2-pyridinyl)-1,8-naphthyridin-4-amine], 716 nM.

On to `Cc1c(-c2ccccn2)nc2cc(F)cc(F)c2c1Nc1cc(N2CCOCC2)cnc1-c1ccc(C#N)cc1` [4-(3-((5,7-difluoro-3-methyl-2-(2-pyridinyl)-4-quinolinyl)-amino)-5-(4-morpholinyl)-2-pyridinyl)benzonitrile], for which affinity was put at a Ki of 5.51 nM. For `Cc1c(-c2ccccn2)nc2cc(F)cc(F)c2c1Nc1cc(N2CCOCC2)cnc1-c1ccc(O)cc1` [4-(3-((5,7-difluoro-3-methyl-2-(2-pyridinyl)-4-quinolinyl)-amino)-5-(4-morpholinyl)-2-pyridinyl)phenol], affinity was put at a Ki of 0.285 nM. Molecule `Cc1c(N2CCN(C(C)C)C(=O)C2)nc2cc(F)cc(F)c2c1Nc1cc(N2CCOCC2)cnc1N1CCOCC1` [4-(4-((2,5-di-4-morpholinyl-3-pyridinyl)amino)-5,7-difluoro-3-methyl-2-quinolinyl)-1-(1-methylethyl)-2-piperazinone] had a Ki of 2.38 nM. With `CCN1CCN(c2nc3cc(F)cc(F)c3c(Nc3cc(N4CCOCC4)cnc3N3CCOCC3)c2C)CC1=O` [4-(4-((2,5-di-4-morpholinyl-3-pyridinyl)amino)-5,7-difluoro-3-methyl-2-quinolinyl)-1-ethyl-2-piperazinone], the affinity, expressed as Ki, was 1.29 nM. In the case of `CCCN1CCN(c2nc3cc(F)cc(F)c3c(Nc3cc(N4CCOCC4)cnc3N3CCOCC3)c2C)CC1=O` [4-(4-((2,5-di-4-morpholinyl-3-pyridinyl)amino)-5,7-difluoro-3-methyl-2-quinolinyl)-1-propyl-2-piperazinone], the Ki amounted to 1.83 nM. As for `Cc1c(N2CCN(C(=O)N(C)C)CC2)nc2cc(F)cc(F)c2c1N(C(=O)N(C)C)c1cncc(N2CCOCC2)c1` [4-(4-((dimethylcarbamoyl)(5-(4-morpholinyl)-3-pyridinyl)-amino)-5,7-difluoro-3-methyl-2-quinolinyl)-N,N-dimethyl-1-piperazinecarboxamide], the figure is 81.6 nM. `Cc1c(N2CCN(C(C)C)C(=O)C2)nc2cc(F)cc(F)c2c1Nc1cncc(N2CCOCC2)c1` [4-(5,7-difluoro-3-methyl-4-((5-(4-morpholinyl)-3-pyridinyl)-amino)-2-quinolinyl)-1-(1-methylethyl)-2-piperazinone] yielded a Ki of 24 nM. As for `CCN1CCN(c2nc3cc(F)cc(F)c3c(Nc3cncc(N4CCOCC4)c3)c2C)CC1=O` [4-(5,7-difluoro-3-methyl-4-((5-(4-morpholinyl)-3-pyridinyl)-amino)-2-quinolinyl)-1-ethyl-2-piperazinone], the figure is 13.2 nM; as for `CCCN1CCN(c2nc3cc(F)cc(F)c3c(Nc3cncc(N4CCOCC4)c3)c2C)CC1=O` [4-(5,7-difluoro-3-methyl-4-((5-(4-morpholinyl)-3-pyridinyl)-amino)-2-quinolinyl)-1-propyl-2-piperazinone], 9.18 nM; as for `Cc1c(N2CCN(C(=O)N(C)C)CC2)nc2cc(F)cc(F)c2c1Nc1cncc(N2CCOCC2)c1` [4-(5,7-difluoro-3-methyl-4-((5-(4-morpholinyl)-3-pyridinyl)-amino)-2-quinolinyl)-N,N-dimethyl-1-piperazinecarboxamide], 72.5 nM. Under `Cc1c(N2CCN(C(=O)NC(C)C)CC2)nc2cc(F)cc(F)c2c1Nc1cncc(N2CCOCC2)c1` [4-(5,7-difluoro-3-methyl-4-((5-(4-morpholinyl)-3-pyridinyl)-amino)-2-quinolinyl)-N-(1-methylethyl)-1-piperazinecarboxamide] stands 50.6 nM.
